Results taken from patent US20130287807A1, “COMPOUNDS FOR TREATING SYMPTOMS ASSOCIATED WITH PARKINSON'S DISEASE” (priority 2008, published 2013).
Values belong to the molecule of their own block, whether it stands above or below them. Square brackets hold non-standard residues; d marks the D form. Ends that are not written are not given here. pGlu = O=C1CC[C@@H](C(=O)O)N1

What was measured:
[1] = test system: p4371; assay: Mimotope vaccination, serum ELISA against p4371; assay type: in vivo, C57/B16 mice; conditions: peptide-KLH vaccines with alum; FIG. 16
Protocol: (§1) Inhibiting as well as non-inhibiting peptides were coupled to KLH and injected into mice (wildtype C57/B16 mice; subcutaneous injection into the flank) together with an appropriate adjuvant (aluminium hydroxide). Animals were vaccinated 3-6 times in biweekly intervals and sera were taken biweekly as well. Titers to injected peptides, as well as to an irrelevant peptide were determined with every serum. Furthermore, titers against the recombinant human Aβ protein, and against original peptides were determined respectively. In general sera were analysed by reaction against peptides coupled to Bovine Serum Albumin (BSA) and recombinant full length proteins which were immobilised on ELISA plates. Titers were determined using anti mouse IgG specific antibodies. For detailed results see FIGS. 15, 16 and 17 respectively and FIGS. 23, 24 and 25 respectively.
(§2) Female C57/b16 mice, 5-6 mice per group, were subcutaneously immunized with 30 μg peptide coupled to KLH. Control groups were administered original epitope-KLH conjugates respectively. As adjuvant alum was used (always 1 mg per mouse). […] The in vitro ELISA assay to determine the antibody titer was performed with sera of single mice after each vaccination in a two week interval (see FIGS. 15 and 16 respectively). The wells of the ELISA plate were coated with mimotope-BSA conjugate and an irrelevant peptide-BSA conjugate (negative control). […]

[2] = test system: p4373; assay: Mimotope vaccination, serum ELISA against p4373; assay type: in vivo, C57/B16 mice; conditions: peptide-KLH vaccines with alum; FIG. 16
Protocol: as §1, §2

[3] = test system: monoclonal antibody MV-003; assay: In vitro inhibition assay (ELISA), MV-003 binding to original epitope; set-up: species or system BalbC mice; conditions: Table 2A; OD at 10 ug peptide compared to original peptide
Protocol: Different amounts of peptides (concentrations ranging from 10 μg to 0.08 μg; serial dilutions; for MV-002: concentrations ranging from 5 μg to 0.03 μg; serial dilutions), derived from Phage Display were incubated with the monoclonal antibody that was used for the screening procedure. Peptides diminishing subsequent binding of the antibody to the original epitope coated on ELISA plates were considered as inhibiting in this assay.
Legend to Table 2A: the inhibition capacity is coded by the following code: Weak inhibition means more peptide is required to lower AB binding than with the original epitope; strong inhibition means similar peptide amounts are required for mimotope and original epitope for lowering AB binding. Mimotopes are compared to the original peptide as standard. OD at 10 ug peptide used in the assay is used to calculate the competition capacity compared to original peptide.

[4] = test system: amyloid plaques; assay: Tg2576 AD mouse model: area occupied by amyloid plaques after mimotope vaccination; assay type: in vivo, Tg2576 mice; conditions: FIG. 18 Gr2 p4381, Gr3 p4390, Gr4 p4715, FIG. 26 Gr2 p4675, FIG. 19 Gr2 p4395
[5] = test system: monoclonal antibody MV-003; assay: In vitro binding assay (ELISA), BSA-coupled peptides, parental antibody MV-003; set-up: species or system BalbC mice; conditions: Table 1A; peptide-BSA on plate, compared to original epitope
Protocol: Peptides derived from Phage Display as well as variants thereof were coupled to BSA and bound to ELISA plates (1 μM; as indicated in the respective figures) and subsequently incubated with the monoclonal antibody that was used for the screening procedure to analyse binding capacity of identified peptides.
Legend to Table 1A: the binding capacity is coded by the following binding code: 1:X describes the dilution factor of the parental AB.

[6] = test system: Aβ/truncated/modified forms; assay: In vivo characterisation of mimotopes: detection of Aβ/truncated/modified forms; set-up: species or system C57/B16 mice; key: +: All peptides listed in Table 5 mount specific immune reactions against full length and/or truncated and modified forms of Aβ or fragments thereof; conditions: Table 5, MV-003 derived mimotopes
Protocol: as §1
(§3) Female C57/b16 mice, 5-6 mice per group, were subcutaneously immunized with 30 μg peptide coupled to KLH. Control groups were administered original epitope-KLH conjugates respectively. As adjuvant alum was used (always 1 mg per mouse). […] The in vitro ELISA assay to determine the antibody titer was performed with sera of single mice after each vaccination in a two week interval (see FIGS. 15 and 16 respectively). The wells of the ELISA plate were coated with mimotope-BSA conjugate and an irrelevant peptide-BSA conjugate (negative control). The positive control was performed by reaction of the parental antibody with the respective mimotope-BSA conjugate. The detection was performed with anti-mouse IgG. Additionally, recombinant proteins were immobilised on ELISA plates and sera reacted accordingly. FIGS. 15 to 17 show representative examples for assays used to characterise mimotopes in vivo.
as §3, with “FIGS. 25” for “FIGS. 15”, “and 26” for “and 16”, “respectively). Titers were calculated as OD max/2 in all figures shown.” for “respectively).”, “FIGS. 23, 24 and 25” for “FIGS. 15 to 17”

[7] = target: monoclonal antibody MV-003; assay: ELISA on peptide-BSA; code 3 = strong binding, OD halfmax 1:>60000
[8] = target: monoclonal antibody MV-003; assay: inhibition ELISA, competitor coated original epitope p4373; code 2 = strong inhibition (as original epitope)

Molecule: p(E)FRHDS-C ([pGlu]FRHDSC) [p4373, non-mimotope peptide, pyroglutamate-modified aa3-8 of Aβ]
immune response / titers against p4371 [1]: mount relevant titers

Molecule: EFRHDS-C (EFRHDSC) [p4371]
immune response / titers against p4373 [2]: mount relevant titers

The next lines start with results.

Binding Capacity [5]: 2 (medium binding :16-60000)
Molecule: IRWDTPC [p4395]
Inhibition Capacity [3]: 1 (Weaker than original epitope (OD of 10 ug peptide below 12 times of original peptide))
average occupation (relative area occupied by amyloid deposits in the brain) ([4]; Tg2576, 6 s.c. injections monthly, peptide-KLH on ALUM, mAb 3A5 staining, cortex and hippocampus, control group 0.35%): 0.21%
reduction of area occupied by amyloid plaques following mimotope treatment ([4]; versus PBS-ALUM control group): 38%
Detection of Aβ/truncated/modified forms [6]: +

dilution factor of the parental antibody at OD halfmax (1:X) (dilutionfactor(1:x)) [7]: > 60000
OD at 10 ug peptide relative to OD of original peptide (inhibition ELISA) [8]: < 5 fold
B1: p4728 (peptide)
peptide: IRWDTSLC
